Assay results taken from PubChem BioAssay (NCI).
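Exposure lasted 48 hours, with cells grown in 96-well plates and compounds tested at five concentrations. TGI: total growth inhibition.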

What follows are molecules tested on SK-MEL-2 melanoma (assay: DTP human tumour cell line panel, 48 h).

Compound | TGI
CN1CCOC1(C)CO (centres undefined) | > 100 µM
COc1ccc2c3c1O[C@H]1C(O)CCC4(O)[C@@H](C2)NCC[C@]314 (some centres undefined) | > 100 µM
N#CSc1nc[nH]c1C(N)=O | > 100 µM
CN(C)C(=O)NCCN1CCCCCc2ccccc21 | > 100 µM
CCOC(=O)c1nc2c(Cl)c3ncccc3cc2[nH]c1=O | > 100 µM
CC1(C#N)CC(C)(C)C(/C=C2/CC(C)(C)C(/C=C3/OC(=N)CC3(C)C)=N2)=N1 (centres undefined) | > 100 µM
Cc1cccc(/C=N/NC(=S)NCCc2ccccn2)n1 | > 100 µM
C=CCNC1=C2C[C@@H](C)C[C@@H](OC)[C@@H](OC(=O)CCCN)[C@H](C)/C=C(\C)[C@@H](OC(N)=O)[C@H](OC)/C=C\C=C(/C)C(=O)NC(=CC1=O)C2=O | 31 µM
CC(=O)Oc1ccccc1-c1cc2ccccc2oc1=O | > 100 µM
CCOC(=O)C(N)CSC(=O)NC (centres undefined) | 276 µM
CC(=O)c1csc2c1C(=O)c1scc(C(C)=O)c1C2=O | 3.73 µM
CCOC(=O)c1csc(NC(=O)C(C)N2CCCCC2)n1 (centres undefined) | > 100 µM
CCN1c2nc3ccccc3nc2N(CC)c2nc3ccccc3nc21 | > 100 µM
O=C1c2cc3c(cc2CC12Cc1cc4c(cc1C2=O)CCC4)CCCC3 (centres undefined) | > 100 µM
N#Cc1sc2nc(/C=C3/C=CC=CC3=O)c(O)n2c1N | > 100 µM
CC1(C)OCC2OC3(c4nc(C#N)c(N)o4)OC(C)(C)OC3C2O1 (centres undefined) | > 100 µM
C[C@H]1[C@H](C)CC[C@]2(C)CC[C@]3(C)C(=C[C@@H](O)[C@@H]4[C@@]5(C)[C@H](O)[C@@H](O)[C@H](O)C(C)(C)[C@@H]5CC[C@]43C)[C@H]12 | > 100 µM
c1cc(-c2ncc(-c3ccc4c(c3)CCCO4)o2)ccn1 | 37.6 µM
COc1ccnc2c1C(=O)c1nc3ccccc3c3ccnc-2c13 | 4.11 µM
O=C(O)c1ccc(NNc2cc(=O)[nH]c(=O)[nH]2)cc1 | > 100 µM
COc1ccc2c(c1C)C(=O)C(O)(CC=C(C)C)O2 (centres undefined) | > 100 µM
COc1ccc(CCNC2=CC(=O)c3ncccc3C2=O)cc1OC | 6.73 µM
COc1ccc2c(c1)CCc1c-2[nH]c2ccc(OC)cc12 | > 100 µM
N#Cc1c(-c2ccccc2)[nH]c2ccccc2c1=O | > 100 µM
O=C(NCCCNC(=O)c1ccc2c(O)c(O)ccc2c1)c1ccc2c(O)c(O)ccc2c1 | > 81.6 µM
CC12CCC(C(=O)OC1=O)C2(C)C (centres undefined) | > 100 µM
CC1=C(Br)C(Br)=C(C)S1=O | 32.9 µM
O=C1NC(=O)C(c2c[nH]c3cc(Br)ccc23)=C1c1cn(C(c2ccccc2)(c2ccccc2)c2ccccc2)cn1 | 25.8 µM
CCOC(=O)C1=C(Nc2cccc(OC)c2)OCC1=O | > 100 µM

What follows are molecules tested on HCT-15 colon (assay: DTP human tumour cell line panel, 48 h).

Compound | TGI
CN1CCOC1(C)CO (centres undefined) | > 100 µM
COc1ccc2c3c1O[C@H]1C(O)CCC4(O)[C@@H](C2)NCC[C@]314 (some centres undefined) | > 100 µM
N#CSc1nc[nH]c1C(N)=O | > 100 µM
CN(C)C(=O)NCCN1CCCCCc2ccccc21 | > 100 µM
CCOC(=O)c1nc2c(Cl)c3ncccc3cc2[nH]c1=O | 56.5 µM
CC1(C#N)CC(C)(C)C(/C=C2/CC(C)(C)C(/C=C3/OC(=N)CC3(C)C)=N2)=N1 (centres undefined) | 44.1 µM
Cc1cccc(/C=N/NC(=S)NCCc2ccccn2)n1 | > 100 µM
C=CCNC1=C2C[C@@H](C)C[C@@H](OC)[C@@H](OC(=O)CCCN)[C@H](C)/C=C(\C)[C@@H](OC(N)=O)[C@H](OC)/C=C\C=C(/C)C(=O)NC(=CC1=O)C2=O | 41.2 µM
CC(=O)Oc1ccccc1-c1cc2ccccc2oc1=O | > 100 µM
CCOC(=O)C(N)CSC(=O)NC (centres undefined) | 312 µM
CC(=O)c1csc2c1C(=O)c1scc(C(C)=O)c1C2=O | 3.2 µM
CCOC(=O)c1csc(NC(=O)C(C)N2CCCCC2)n1 (centres undefined) | > 100 µM
CCN1c2nc3ccccc3nc2N(CC)c2nc3ccccc3nc21 | > 100 µM
O=C1c2cc3c(cc2CC12Cc1cc4c(cc1C2=O)CCC4)CCCC3 (centres undefined) | > 100 µM
N#Cc1sc2nc(/C=C3/C=CC=CC3=O)c(O)n2c1N | > 100 µM
CC1(C)OCC2OC3(c4nc(C#N)c(N)o4)OC(C)(C)OC3C2O1 (centres undefined) | > 100 µM
C[C@H]1[C@H](C)CC[C@]2(C)CC[C@]3(C)C(=C[C@@H](O)[C@@H]4[C@@]5(C)[C@H](O)[C@@H](O)[C@H](O)C(C)(C)[C@@H]5CC[C@]43C)[C@H]12 | > 100 µM
c1cc(-c2ncc(-c3ccc4c(c3)CCCO4)o2)ccn1 | 69.7 µM
COc1ccnc2c1C(=O)c1nc3ccccc3c3ccnc-2c13 | 0.145 µM
O=C(O)c1ccc(NNc2cc(=O)[nH]c(=O)[nH]2)cc1 | > 100 µM
COc1ccc2c(c1C)C(=O)C(O)(CC=C(C)C)O2 (centres undefined) | > 100 µM
COc1ccc(CCNC2=CC(=O)c3ncccc3C2=O)cc1OC | 5.09 µM
COc1ccc2c(c1)CCc1c-2[nH]c2ccc(OC)cc12 | > 100 µM
N#Cc1c(-c2ccccc2)[nH]c2ccccc2c1=O | > 100 µM
O=C(NCCCNC(=O)c1ccc2c(O)c(O)ccc2c1)c1ccc2c(O)c(O)ccc2c1 | > 72.5 µM
CC12CCC(C(=O)OC1=O)C2(C)C (centres undefined) | > 100 µM
CC1=C(Br)C(Br)=C(C)S1=O | > 100 µM
O=C1NC(=O)C(c2c[nH]c3cc(Br)ccc23)=C1c1cn(C(c2ccccc2)(c2ccccc2)c2ccccc2)cn1 | 37.6 µM
CCOC(=O)C1=C(Nc2cccc(OC)c2)OCC1=O | > 100 µM

Each molecule was assayed on SK-MEL-28 melanoma (assay: DTP human tumour cell line panel, 48 h).

Compound | TGI
COc1ccc2c3c1O[C@H]1C(O)CCC4(O)[C@@H](C2)NCC[C@]314 (some centres undefined) | > 100 µM
N#CSc1nc[nH]c1C(N)=O | > 100 µM
CN(C)C(=O)NCCN1CCCCCc2ccccc21 | > 100 µM
CCOC(=O)c1nc2c(Cl)c3ncccc3cc2[nH]c1=O | > 100 µM
CC1(C#N)CC(C)(C)C(/C=C2/CC(C)(C)C(/C=C3/OC(=N)CC3(C)C)=N2)=N1 (centres undefined) | > 100 µM
Cc1cccc(/C=N/NC(=S)NCCc2ccccn2)n1 | > 100 µM
C=CCNC1=C2C[C@@H](C)C[C@@H](OC)[C@@H](OC(=O)CCCN)[C@H](C)/C=C(\C)[C@@H](OC(N)=O)[C@H](OC)/C=C\C=C(/C)C(=O)NC(=CC1=O)C2=O | 41.9 µM
CC(=O)Oc1ccccc1-c1cc2ccccc2oc1=O | > 100 µM
CCOC(=O)C(N)CSC(=O)NC (centres undefined) | 440 µM
CC(=O)c1csc2c1C(=O)c1scc(C(C)=O)c1C2=O | 3.64 µM
CCOC(=O)c1csc(NC(=O)C(C)N2CCCCC2)n1 (centres undefined) | > 100 µM
CCN1c2nc3ccccc3nc2N(CC)c2nc3ccccc3nc21 | > 100 µM
O=C1c2cc3c(cc2CC12Cc1cc4c(cc1C2=O)CCC4)CCCC3 (centres undefined) | > 100 µM
N#Cc1sc2nc(/C=C3/C=CC=CC3=O)c(O)n2c1N | > 100 µM
CC1(C)OCC2OC3(c4nc(C#N)c(N)o4)OC(C)(C)OC3C2O1 (centres undefined) | > 100 µM
c1cc(-c2ncc(-c3ccc4c(c3)CCCO4)o2)ccn1 | > 100 µM
COc1ccnc2c1C(=O)c1nc3ccccc3c3ccnc-2c13 | 7.37 µM
O=C(O)c1ccc(NNc2cc(=O)[nH]c(=O)[nH]2)cc1 | > 100 µM
COc1ccc2c(c1C)C(=O)C(O)(CC=C(C)C)O2 (centres undefined) | > 100 µM
COc1ccc(CCNC2=CC(=O)c3ncccc3C2=O)cc1OC | 2.69 µM
COc1ccc2c(c1)CCc1c-2[nH]c2ccc(OC)cc12 | > 100 µM
N#Cc1c(-c2ccccc2)[nH]c2ccccc2c1=O | > 100 µM
O=C(NCCCNC(=O)c1ccc2c(O)c(O)ccc2c1)c1ccc2c(O)c(O)ccc2c1 | > 100 µM
CC12CCC(C(=O)OC1=O)C2(C)C (centres undefined) | > 100 µM
CC1=C(Br)C(Br)=C(C)S1=O | 41.9 µM
O=C1NC(=O)C(c2c[nH]c3cc(Br)ccc23)=C1c1cn(C(c2ccccc2)(c2ccccc2)c2ccccc2)cn1 | 92.6 µM
